Laboratory results reported in patent US20060134286A1, “Gallocatechin gallate-containing composition” (Suntory Limited, priority 2002, published 2006).

Test system: Streptococcus mutans (MT8148R)
Experiment: Antibacterial activity against Streptococcus mutans (colony count after 1 hour contact with sample)
Format: cell-based
Conditions: final concentration of the sample 1 mg/mL; 37° C. for 1 hour; colonies counted on MS agar medium after 2 days
Procedure: Streptococcus mutans (MT8148R) was cultured in a brain heart infusion medium (BHI, manufactured by Difco) at 37° C. for 18 hours. After collection of the cells by centrifugation, the precipitate was washed three times with a phosphate buffer solution (PBS, pH 6.8). Then the cells were suspended to give an absorbance of 0.5 at 550 nm. Thus, about 2×10^7 colonies per mL (expressed in colony forming unit: CFU) were formed . Next, an equal amount of a previously prepared sample solution was added to the suspension and the resultant mixture was allowed to stand at 37° C. for 1 hour. 0.1 mL of this liquid mixture or the same mixture seriously 10-fold diluted was sowed on a Mitis salivarius agar medium (MS agar medium, manufactured by Difco). After culturing at 37° C. for 2 days, the colonies thus formed were counted. The antibacterial activity was indicated in the logarithm of CFU of test group/CFU of control lot (i.e., the reducing ratio).
The mixing ratio of EGCG to GCG (manufactured by Sigma) was varied so as to adjust the final concentration of the sample to 1 mg/mL and thus the antibacterial activity was examined. […]

Row | Molecule | Antibacterial activity (logarithm of CFU of test group/CFU of control lot, the reducing ratio)
1 | O=C(O[C@@H]1Cc2c(O)cc(O)cc2O[C@H]1c1cc(O)c(O)c(O)c1)c1cc(O)c(O)c(O)c1 [GCG, gallocatechin gallate] | −3.17
2 | (−)-epigallocatechin gallate [EGCG] | −3.50
